Measurements reported in US9587225B2, “Low-molecular-compound for improving production, maintenance and proliferation of pluripotent stem cells, composition comprising the same, and culture method” (KOREA RESEARCH INSTITUTE OF BIOSCIENCE AND BIOTECHNOLOGY, priority 2012, dated 2017).

Experiments:
Type in all cases: cell-based
human skin fibroblasts [1] = assay: MTT cytotoxicity assay; conditions: concentration up to 50 μM, 72 hours after treatment (FIG. 9)
Method: FIG. 9 is a graph showing the results of analyzing the effect of RSC-133 on the cytotoxicity of human skin fibroblasts. At 72 hours after treatment with various concentrations of RSC-133, cytotoxicity was measured by MTT (3-(4,5-dimethylthiazol-2-yl)-2,5-diphenyltetrazolium bromide (yellow tetrazole) assays. The values shown on the graph are mean values. The data are expressed as mean±SD (n=3).

human skin fibroblasts [2] = assay: Cell growth (total number of cells) during reprogramming culture
From the text: In still another example of the present invention, whether the novel compound RSC-133 has the effect of promoting the growth and proliferation of cells in a culture process for inducing reprogramming was examined by measuring the total number of cells at various time points (FIG. 11). […] In addition, a change in the proliferation of cells during a culture process for inducing reprogramming was examined by a BrdU assay.
FIG. 11 is a graph showing the effect of RSC-133 on cell growth during a reprogramming process. The results were obtained in the same manner as those in FIG. 10. The values shown on the graph are mean values. The data ate are expressed as mean±SD (n=3).
FIG. 12 is a graph showing the results of examining the effect of RSC-133 on the growth of human skin fibroblasts or human skin fibroblasts infected with a reprogramming factor (OSKM) virus. The values shown on the graph are mean values. The data are mean±SD (n=3).
In addition, the growth rate of cells is associated with the self-renewal ability of embryonic stem cells. Thus, whether the novel compound RSC-133 can promote cell growth during reprogramming was examined. As a result, it could be seen that when reprogramming was induced while the cells were treated with RSC-133, the growth rate of the cells increased by about 1.7 times compared to that of the control group (FIG. 11). […]

human skin fibroblasts [3] = assay: BrdU immunocytochemical analysis of proliferating cell population
Method: Immunocytochemical analysis was performed using monoclonal antibody for bromodeoxyuridine (BrdU), and then percent BrdU positive cells are graphically shown. The values shown on the graph are mean values. The data are expressed as ±SD (n=3) (*P<0.05, by t-test).
The left panel is a set of graphs showing the results of immunocytochemical analysis performed using monoclonal antibody for BrdU, and the right panel is a graph showing the results of measurement of percent BrdU positive cells. The values shown on the graph are mean values. The data are expressed as mean±SD (n=3).
For immunostaining, cells were seeded on Matrigel-coated 4-well Lab-Tek chamber slides (Nunc, Naperville, Ill.) and cultured for 5 days under the indicated conditions. The cells were fixed in 4% paraformaldehyde at room temperature for 15 minutes, and then washed with PBS/0.2% BSA. Next, the cells were passed through PBS/0.2% BSA/0.1% Triton X-100 for 15 minutes, and then incubated with 4% normal donkey serum (Molecular Probes, Eugene, Oreg., USA) in PBS/0.2% BSA at room temperature for 1 hour. The cells were diluted with PBS/0.2% BSA, and then reacted with primary antibody at 4° C. for 2 hours. After washing, the cells were reacted with FITC- or Alexa594-conjugated secondary antibody (Invitrogen) in PBS/0.2% BSA at room temperature for 1 hour. The cells were counter-stained with 10 μg/ml DAPI. […]

[4] = tested on: H9 human embryonic stem cells; assay: Maintenance of undifferentiated state of hESC in unconditioned medium
Method: It was observed that, when H9 human embryonic stem cells (hESs) were cultured in unconditioned medium (UM), the differentiation thereof was induced, but when the cells were cultured in UM containing RSC-133, the degree of induced differentiation was inhibited, and pluripotency was acquired again. The efficiency of acquisition of pluripotency was measured by calculating the number of colonies showing AP activity. The values shown on the graph are mean values. The data are expressed as mean±SD (n=3) (*P<0.01, **P<0.005, by t-test).
Human skin fibroblasts (hFFs) were used as a negative control group. H3 and GAPDH proteins were used as internal controls.
Human embryonic stem cell (hESC) H9 (NIH Code, WA09; WiCell Research Institute, Madison, Wis.) and reprogrammed stem cells (hiPSC) were generally cultured in hESC culture medium (composed of 80% DMEM/F12, 20% knockout serum replacement (KSR, Invitrogen, Carlsbad, Calif.), 1% non-essential amino acids (NEAR, Invitrogen), 1 mM L-glutamine (Invitrogen), 0.1 mM β-mercaptoethanol (Sigma, St. Louis, Mo.) and 6 ng/ml bFGF (basic fibroblast growth factor, Invitrogen)) on γ-irradiated MEFs (mouse embryonic fibroblasts). The cells were subcultured with 1 mg/ml collagenase IV (Invitrogen) at intervals of 5-6 days. Human newborn foreskin fibroblasts (hFF, ATCC, catalog number CRL-2097; American Type Culture Collection, Manassas, Va.) were cultured in DMEM containing 10% FBS (fetal bovine serum, Invitrogen), 1% non-essential amino acid, 1 mM L-glutamine and 0.1 mM β-mercaptoethanol.
When human embryonic stem cells (H9) are cultured in unconditioned medium (UM), their differentiation is induced. […] As a positive control group, embryonic stem cells cultured for 6 days in MEF-conditioned medium (CM) effective for maintenance of an undifferentiated state were used. The efficiency of maintenance of an undifferentiated state and inhibition of differentiation was determined by measuring the number of colonies showing AP activity (the lower panel of FIG. 28). […]

[5] = tested on: human skin fibroblasts (hFFs); assay: Reprogramming of human skin fibroblasts, AP-positive colony count

NC(=O)c1cccc(NC(=O)/C=C/c2c[nH]c3ccccc23)c1 [RSC-133, 3-[3-(1H-indol-3-yl)-acrylamido]-benzamide]
cytotoxicity (MTT) (human skin fibroblasts [1]): did not induce cytotoxicity
growth of cells, reprogramming not induced (human skin fibroblasts [2]; human skin fibroblasts or OSKM-transfected fibroblasts, reprogramming not induced (FIG. 12)): increased the growth of the cells
increase of growth rate of the cells during reprogramming (human skin fibroblasts [2]; reprogramming induced, compared to control group (FIG. 11)): about 1.7 times
BrdU-positive cell population, reprogramming not induced (human skin fibroblasts [3]; OSKM-transfected human skin fibroblasts, reprogramming not induced (FIG. 14)): increased BrdU-positive cell population
BrdU-positive cell population during the reprogramming process (human skin fibroblasts [3]; during reprogramming (FIG. 13)): increased BrdU-positive cell population
induced differentiation and pluripotency of hESC in unconditioned medium (AP-positive colonies) ([4]; H9 cultured 6 days in UM supplemented with RSC-133 (FIG. 28)): the degree of induced differentiation was inhibited and pluripotency was re-acquired
expression of Oct4 and H3K9ace (Western blot) ([4]; H9 in UM containing RSC-133 vs CM (FIG. 29)): at levels similar to those in the human embryonic stem cells cultured in CM
expression of pluripotency-specific markers Oct4 and Tra1-81 (immunostaining) ([4]; H9 in UM supplemented with RSC-133 vs CM): expressed at levels similar to those of human embryonic stem cells cultured in CM
substitution for reprogramming factor c-Myc, compound alone ([5]; RSC-133 alone, AP-positive colonies (FIG. 5)): did not show the substituting effect
substitution for reprogramming factor c-Myc, in combination with sodium butyrate ([5]; RSC-133 in combination with sodium butyrate (NaB), compared to control group (FIG. 5)): substituted for c-Myc factor to increase the efficiency of reprogramming
efficiency of reprogramming, treatment in the initial stage ([5]; initial stage (including 5 days after viral infection), compared to other periods of equal length (FIG. 10)): significantly increased
